Key:
[1] = tested on: water seeded rice seedlings; test: Test E flooded paddy test; format: in vivo, Oryza sativa cv. ‘Japonica -M202’; conditions: Flood, after 21 days, scale 0 to 100
Text: (§1) Three plastic pots (ca. 16-cm diameter) per rate were partially filled with sterilized Tama silt loam soil comprising a 35:50:15 ratio of sand, silt and clay and 2.6% organic matter. Separate plantings for each of the three pots were as follows. Seeds from the U.S. of ducksalad (Heteranthera limosa), smallflower umbrella sedge (Cyperus difformis) and purple […] coccinea), were planted into one 16-cm pot for each rate. […] Seeds from the U.S. of barnyardgrass (Echinochloa crus-galli), late watergrass (Echinochloa oryzicola), early watergrass (Echinochloa oryzoides) and junglerice (Echinochloa colona) were planted into one 16-cm pot for each rate. Plantings were sequential so that crop and weed species were at the 2.0 to 2.5-leaf stage at time of treatment. Potted plants were grown in a greenhouse with day/night temperature settings of 30/27° C., and supplemental balanced lighting was provided to maintain a 16-hour photoperiod. Test pots were maintained in the greenhouse until test completion. At time of treatment, test pots were flooded to 3 cm above the soil surface, treated by application of test compounds directly to the paddy water, and then maintained at that water depth for the duration of the test. Effects of treatments on rice and weeds were visually evaluated by comparison to untreated controls after 21 days. […] A dash (-) response means no test result.

[2] = tested on: barnyardgrass; test: Test E flooded paddy test; format: in vivo, Echinochloa crus-galli; conditions: Flood, after 21 days, scale 0 to 100
Text: as §1

[3] = tested on: late watergrass; test: Test E flooded paddy test; format: in vivo, Echinochloa oryzicola; conditions: Flood, after 21 days, scale 0 to 100
Text: as §1

[4] = tested on: downy bromegrass; test: Test D preemergence test; format: in vivo, Bromus tectorum; conditions: scale 0 to 100
Text: (§2) Seeds of plant species selected from annual bluegrass (Poa annua), blackgrass (Alopecurus myosuroides), downy bromegrass (Bromus tectorum), field violet (Viola arvensis), green foxtail (Setaria viridis), Italian ryegrass (Lolium multiflorum), littleseed canarygrass (Phalaris minor), spring wheat (Triticum aestivum), wild oat (Avena fatua), […]), winter barley (Hordeum vulgare), and winter wheat (Triticum aestivum) were planted and treated preemergence with test chemicals formulated in a non-phytotoxic solvent mixture which included a surfactant. […] A dash (-) response means no test result.

[5] = tested on: green foxtail; test: Test D preemergence test; format: in vivo, Setaria viridis; conditions: scale 0 to 100
Text: as §2

[6] = tested on: winter wheat; test: Test D preemergence test; format: in vivo, Triticum aestivum; conditions: scale 0 to 100
Outline: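 Preemergence application to planted seeds; compounds in non-phytotoxic solvent blend plus surfactant. Dash = not tested.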

[7] = tested on: winter barley; test: Test D preemergence test; format: in vivo, Hordeum vulgare
Text: as §2

[8] = tested on: itchgrass; test: Test G preemergence test; format: in vivo, Rottboellia cochinchinensis; conditions: scale 0 to 100
[9] = tested on: large crabgrass; test: Test G preemergence test; format: in vivo, Digitaria sanguinalis; conditions: scale 0 to 100
[10] = tested on: millet; test: Test G preemergence test; format: in vivo, Panicum miliaceum; conditions: scale 0 to 100
[11] = tested on: sugarcane; test: Test F pre-/postemergence test; format: in vivo, Saccharum officinarum; conditions: for Plant response rating, Sugarcane: preemergence, scale 0 to 100
Text: Seeds of plant species selected from bermudagrass (Cynodon dactylon), Surinam grass (Brachiaria decumbens), large crabgrass (Digitaria sanguinalis), green foxtail (Setaria viridis), goosegrass (Eleusine indica), johnsongrass (Sorghum halepense), kochia (Kochia scoparia), pitted morningglory (Ipomoea lacunosa), purple nutsedge (Cyperus rotundus), common ragweed (Ambrosia elation), mustard (Brassica nigra), guineagrass (Panicum maximum), […] (Paspalum dilatatum), barnyardgrass (Echinochloa crus-galli), southern sandbur (Cenchrus echinatus), common sowthistle (Sonchus oleraceous), prickly […] spinosa), Italian ryegrass (Lolium multiflorum), common purslane (Portulaca oleracea), broadleaf signalgrass (Brachiaria platyphylla), common groundsel (Senecio vulgaris), common chickweed (Stellaria media), Virginia dayflower (Commelina virginica), annual bluegrass (Poa annua), naked crabgrass (Digitaria nuda), […] cochinchinensis), quackgrass (Elytrigia repens), Canada horseweed (Conyza canadensis), field bindweed (Convolvulus arvensis), […] (Bidens bipinnata), common mallow (Malva sylvestris), Russian thistle (Salsola kali), and sugarcane (Saccharum officinarum) were planted and treated preemergence with test chemicals formulated in a non-phytotoxic solvent mixture which included a surfactant. At a different time, sugarcane was treated with postemergence applications of some of the test chemicals formulated in the same manner. Plants were approximately 3- to 4-leaf stage for the postemergence treatments. Treated plants and controls were maintained in a greenhouse for 14 to 21 days, after which time all species were compared to controls and visually evaluated. […] A dash (-) response means no test result.

[12] = tested on: barnyardgrass; test: Test B flooded paddy test; format: in vivo, Echinochloa crus-galli; conditions: Flood, 250 g ai/ha, 13 to 15 days; scale 0 to 100, 0 no effect, 100 complete control
Text: At time of treatment, test pots were flooded to 3 cm above the soil surface, treated by application of test compounds directly to the paddy water, and then maintained at that water depth for the duration of the test. Treated plants and controls were maintained in a greenhouse for 13 to 15 days, after which time all species were compared to controls and visually evaluated. […] A dash (-) response means no test result.

[13] = Preemergence, 62 g ai/ha, scale 0 to 100
[14] = Preemergence, 125 g ai/ha, scale 0 to 100
[15] = Preemergence, 31 g ai/ha, scale 0 to 100
[16] = preemergence, 250 g ai/ha, scale 0 (no effect) to 100 (complete control)

| SMILES | Plant response rating, Bromegrass, Downy ([4]; 31 g ai/ha) | Plant response rating, Bromegrass, Downy ([4]; 62 g ai/ha) | Plant response rating, Bromegrass, Downy ([4]; 125 g ai/ha) | Plant response rating, Bromegrass, Downy ([4]; 250 g ai/ha) | Plant response rating, Foxtail, Green ([5]; 31 g ai/ha) | Plant response rating, Foxtail, Green ([5]; 62 g ai/ha) | Plant response rating, Foxtail, Green ([5]; 125 g ai/ha) | Plant response rating, Foxtail, Green ([5]; 250 g ai/ha) | Plant response rating, Wheat, Winter ([6]; 31 g ai/ha) | Plant response rating, Wheat, Winter ([6]; 62 g ai/ha) | Plant response rating, Wheat, Winter ([6]; 125 g ai/ha) | Plant response rating, Wheat, Winter ([6]; 250 g ai/ha) | Plant response rating, Barley [7, 13] | Plant response rating, Barley [7, 14] | Plant response rating, Barley [7, 15] | Plant response rating, Barley [7, 16] | Plant response rating, Itchgrass ([8]; 31 g ai/ha) | Plant response rating, Itchgrass ([8]; 62 g ai/ha) | Plant response rating, Itchgrass ([8]; 125 g ai/ha) | Plant response rating, Itchgrass ([8]; 250 g ai/ha) | further results |
| --- | --- | --- | --- | --- | --- | --- | --- | --- | --- | --- | --- | --- | --- | --- | --- | --- | --- | --- | --- | --- | --- |
| Cn1nc(C(F)(F)F)c(C[S+]([O-])c2cc(Br)cc[n+]2[O-])c1Cl (racemic) [Compound 35] | – | – | – | – | – | – | – | – | – | – | – | – | – | – | – | – | – | – | – | – | Plant response rating, Rice, Waterseeded ([1]; 16 g ai/ha): 0; Plant response rating, Rice, Waterseeded ([1]; 32 g ai/ha): 0; Plant response rating, Rice, Waterseeded ([1]; 64 g ai/ha): 0; Plant response rating, Rice, Waterseeded ([1]; 125 g ai/ha): 20; Plant response rating, Rice, Waterseeded ([1]; 250 g ai/ha): 30; Plant response rating, Barnyardgrass ([2]; 16 g ai/ha): 0; Plant response rating, Barnyardgrass ([2]; 32 g ai/ha): 0; Plant response rating, Barnyardgrass ([2]; 64 g ai/ha): 0; Plant response rating, Barnyardgrass ([2]; 125 g ai/ha): 0; Plant response rating, Barnyardgrass ([2]; 250 g ai/ha): 50; Plant response rating, Watergrass, Late ([3]; 16 g ai/ha): 0; Plant response rating, Watergrass, Late ([3]; 32 g ai/ha): 0; Plant response rating, Watergrass, Late ([3]; 64 g ai/ha): 0; Plant response rating, Watergrass, Late ([3]; 125 g ai/ha): 30; Plant response rating, Watergrass, Late ([3]; 250 g ai/ha): 60 |
| Cn1nc(C(F)(F)F)c(C(Cl)S(=O)(=O)c2cccc[n+]2[O-])c1Cl (stereo not drawn) [Compound 12] | 0 | 0 | 60 | 60 | 55 | 60 | 65 | 100 | 0 | 0 | 0 | 0 | 0 | 0 | 0 | 0 | 0 | 0 | 0 | 0 | Plant response rating, Crabgrass, Large ([9]; 31 g ai/ha): 15; Plant response rating, Crabgrass, Large ([9]; 62 g ai/ha): 60; Plant response rating, Crabgrass, Large ([9]; 125 g ai/ha): 95; Plant response rating, Crabgrass, Large ([9]; 250 g ai/ha): 100; Plant response rating, Millet ([10]; 31 g ai/ha): 50; Plant response rating, Millet ([10]; 62 g ai/ha): 50; Plant response rating, Millet ([10]; 125 g ai/ha): 100; Plant response rating, Millet ([10]; 250 g ai/ha): 100 |
| Cn1nc(C(F)(F)F)c(C[S+]([O-])c2cccc[n+]2[O-])c1OCC(F)(F)F (racemic) [Compound 28] | – | – | – | – | – | – | – | – | – | – | – | – | – | – | – | – | – | – | – | – | Plant response rating, Sugarcane ([11]; 125 g ai/ha): 17; Plant response rating, Sugarcane ([11]; 500 g ai/ha): 68 |
| Cn1nc(C(F)(F)F)c(C[S+]([O-])c2ccc(Cl)c[n+]2[O-])c1OC(F)F (stereo not drawn) [Compound 6] | – | – | – | – | – | – | – | – | – | – | – | – | – | – | – | – | – | – | – | – | Plant response rating, Barnyardgrass [12]: 80 |
| Cc1cc[n+]([O-])c(S(=O)(=O)C(Cl)c2c(C(F)(F)F)nn(C)c2Cl)c1 (racemic) [Compound 22] | 0 | 20 | 20 | 35 | 15 | 40 | 95 | 100 | 0 | 0 | 0 | 10 | 0 | 0 | 0 | 0 | 0 | 15 | 20 | 40 | Plant response rating, Crabgrass, Large ([9]; 31 g ai/ha): 60; Plant response rating, Crabgrass, Large ([9]; 62 g ai/ha): 60; Plant response rating, Crabgrass, Large ([9]; 125 g ai/ha): 95; Plant response rating, Crabgrass, Large ([9]; 250 g ai/ha): 100; Plant response rating, Millet ([10]; 31 g ai/ha): 0; Plant response rating, Millet ([10]; 62 g ai/ha): 35; Plant response rating, Millet ([10]; 125 g ai/ha): 60; Plant response rating, Millet ([10]; 250 g ai/ha): 100 |
| C#CCOc1c(C[S+]([O-])c2cccc[n+]2[O-])c(C(F)(F)F)nn1C (stereo not drawn) [Compound 76] | – | – | – | – | – | – | – | – | – | – | – | – | – | – | – | – | – | – | – | – | Plant response rating, Rice, Waterseeded ([1]; 64 g ai/ha): 10; Plant response rating, Rice, Waterseeded ([1]; 125 g ai/ha): 10; Plant response rating, Rice, Waterseeded ([1]; 1000 g ai/ha): 40; Plant response rating, Barnyardgrass ([2]; 64 g ai/ha): 0; Plant response rating, Barnyardgrass ([2]; 125 g ai/ha): 60; Plant response rating, Barnyardgrass ([2]; 250 g ai/ha): 85; Plant response rating, Barnyardgrass ([2]; 500 g ai/ha): 95; Plant response rating, Barnyardgrass ([2]; 1000 g ai/ha): 95; Plant response rating, Watergrass, Late ([3]; 64 g ai/ha): 0; Plant response rating, Watergrass, Late ([3]; 125 g ai/ha): 40; Plant response rating, Watergrass, Late ([3]; 250 g ai/ha): 75; Plant response rating, Watergrass, Late ([3]; 500 g ai/ha): 95; Plant response rating, Watergrass, Late ([3]; 1000 g ai/ha): 95 |
| Cc1cc[n+]([O-])c([S+]([O-])Cc2c(C(F)(F)F)nn(C)c2OCC(F)(F)F)c1 (racemic) [Compound 30] | – | – | – | – | – | – | – | – | – | – | – | – | – | – | – | – | – | – | – | – | Sugarcane plant response rating ([11]; 250 g ai/ha, postemergence, scale 0 to 100 (0 no effect, 100 complete control)): 33; Plant response rating, Sugarcane ([11]; 250 g ai/ha): 12 |
| Cc1cc[n+]([O-])c(S(=O)(=O)C(C)c2c(C(F)(F)F)nn(C)c2Cl)c1 (racemic) [Compound 14] | 0 | 0 | 60 | 60 | 0 | 20 | 65 | 80 | 0 | 0 | 20 | 35 | 0 | 0 | 0 | 15 | 0 | 0 | 15 | 20 | Plant response rating, Crabgrass, Large ([9]; 31 g ai/ha): 0; Plant response rating, Crabgrass, Large ([9]; 62 g ai/ha): 45; Plant response rating, Crabgrass, Large ([9]; 125 g ai/ha): 100; Plant response rating, Crabgrass, Large ([9]; 250 g ai/ha): 100; Plant response rating, Millet ([10]; 31 g ai/ha): 0; Plant response rating, Millet ([10]; 62 g ai/ha): 15; Plant response rating, Millet ([10]; 125 g ai/ha): 20; Plant response rating, Millet ([10]; 250 g ai/ha): 75 |

Source: US20100298141A1, “SUBSTITUTED PYRIDINE N-OXIDE HERBICIDES” (E. I. DU PONT DE NEMOURS AND COMPANY, priority 2007, published 2010)
